Assay results: article PMC7811140 (iScience, 2020)
Entries after “also recorded” stand apart in the source; their conditions may differ. Each block holds one compound with its values, some of them ahead of it.

Columns and labels:
PAX3-FOXO1 = assay: Western blot of PAX3-FOXO1 in Rh30 cells; format: cell-based; conditions: 24 hr
KDM4B [1] = target: T1, KDM4B (Homo sapiens, UniProt O94953); assay: Western blot of histone marks in 293T cells expressing KDM4B; format: cell-based; conditions: treated 24 hours
T1 sequence (O94953 1-1096): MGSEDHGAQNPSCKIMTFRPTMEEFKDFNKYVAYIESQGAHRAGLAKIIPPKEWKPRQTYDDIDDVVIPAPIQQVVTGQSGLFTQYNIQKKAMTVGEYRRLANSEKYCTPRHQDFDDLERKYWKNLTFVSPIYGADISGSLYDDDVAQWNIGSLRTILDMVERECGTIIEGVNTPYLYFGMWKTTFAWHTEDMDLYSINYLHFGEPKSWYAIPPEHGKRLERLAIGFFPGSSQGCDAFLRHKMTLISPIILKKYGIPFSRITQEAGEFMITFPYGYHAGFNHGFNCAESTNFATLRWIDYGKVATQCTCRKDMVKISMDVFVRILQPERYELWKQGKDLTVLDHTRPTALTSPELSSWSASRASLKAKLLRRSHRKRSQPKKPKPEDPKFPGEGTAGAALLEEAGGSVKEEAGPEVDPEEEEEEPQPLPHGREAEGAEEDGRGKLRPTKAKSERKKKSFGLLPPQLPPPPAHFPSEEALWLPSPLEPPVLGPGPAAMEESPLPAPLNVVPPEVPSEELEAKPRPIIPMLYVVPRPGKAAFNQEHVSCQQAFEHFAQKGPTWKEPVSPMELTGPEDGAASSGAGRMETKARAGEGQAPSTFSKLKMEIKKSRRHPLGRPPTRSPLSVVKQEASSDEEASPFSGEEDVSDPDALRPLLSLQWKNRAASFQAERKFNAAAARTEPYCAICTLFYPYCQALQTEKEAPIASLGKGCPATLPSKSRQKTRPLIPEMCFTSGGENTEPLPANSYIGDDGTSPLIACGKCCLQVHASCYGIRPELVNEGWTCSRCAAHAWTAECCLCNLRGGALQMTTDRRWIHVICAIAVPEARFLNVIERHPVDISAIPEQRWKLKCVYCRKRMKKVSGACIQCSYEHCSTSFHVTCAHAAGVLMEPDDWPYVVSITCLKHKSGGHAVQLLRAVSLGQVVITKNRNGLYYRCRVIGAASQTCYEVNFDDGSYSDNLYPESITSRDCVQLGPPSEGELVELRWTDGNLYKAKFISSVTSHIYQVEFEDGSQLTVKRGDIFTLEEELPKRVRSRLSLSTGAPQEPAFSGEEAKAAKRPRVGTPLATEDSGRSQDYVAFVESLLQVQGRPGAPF

KDM4C = target: T2, KDM4C (Homo sapiens, UniProt Q9H3R0); assay: ALPHA Screen demethylation assay; format: biochemical; conditions: IC50 (μM) KDM4C
T2 sequence (Q9H3R0 1-1056): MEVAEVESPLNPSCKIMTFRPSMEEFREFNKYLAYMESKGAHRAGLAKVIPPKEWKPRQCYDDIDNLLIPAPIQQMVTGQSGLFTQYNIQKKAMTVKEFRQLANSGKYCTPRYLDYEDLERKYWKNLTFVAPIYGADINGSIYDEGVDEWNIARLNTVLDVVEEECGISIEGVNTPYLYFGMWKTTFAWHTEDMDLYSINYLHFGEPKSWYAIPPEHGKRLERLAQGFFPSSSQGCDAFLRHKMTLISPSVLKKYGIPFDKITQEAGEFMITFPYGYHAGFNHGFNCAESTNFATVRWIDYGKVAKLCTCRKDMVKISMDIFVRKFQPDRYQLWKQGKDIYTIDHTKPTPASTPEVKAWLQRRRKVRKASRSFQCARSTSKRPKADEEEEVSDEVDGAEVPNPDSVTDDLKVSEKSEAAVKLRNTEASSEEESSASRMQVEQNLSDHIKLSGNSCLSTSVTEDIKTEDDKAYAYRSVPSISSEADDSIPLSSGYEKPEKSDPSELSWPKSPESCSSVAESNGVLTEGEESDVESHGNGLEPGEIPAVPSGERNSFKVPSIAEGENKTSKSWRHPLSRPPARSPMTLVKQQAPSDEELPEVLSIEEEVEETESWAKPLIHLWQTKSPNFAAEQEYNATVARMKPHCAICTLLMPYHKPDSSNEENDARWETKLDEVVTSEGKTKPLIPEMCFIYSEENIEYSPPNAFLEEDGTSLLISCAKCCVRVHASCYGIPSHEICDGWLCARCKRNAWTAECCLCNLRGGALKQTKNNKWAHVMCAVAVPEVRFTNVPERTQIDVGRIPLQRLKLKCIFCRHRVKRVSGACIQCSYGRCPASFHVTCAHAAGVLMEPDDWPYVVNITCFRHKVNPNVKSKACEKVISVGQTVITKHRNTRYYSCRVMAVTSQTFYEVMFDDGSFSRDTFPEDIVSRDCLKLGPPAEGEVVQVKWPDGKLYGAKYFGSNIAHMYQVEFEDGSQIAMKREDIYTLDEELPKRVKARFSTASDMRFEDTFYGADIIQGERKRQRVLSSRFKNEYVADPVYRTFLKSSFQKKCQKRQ

KDM4B [2] = target: T1, KDM4B; assay: Western blot of histone methyl marks in U2OS cells expressing KDM4B; conditions: 1uM, not on H3K4me3
[3] = system: H3K9me3 and H3K36me3 peaks; assay: ChIP-seq of H3K9me3 and H3K36me3 in Rh30 cells; format: cell-based, human; conditions: 1μM, 24 hr
KDM5A = KDM5A (Homo sapiens, UniProt P29375); assay: ALPHA Screen demethylation assay; format: biochemical; conditions: IC50 (μM) KDM5A
[4] = system: KDM4 substrates H3K9me3 and H3K36me3; assay: Western blot of H3K9me3 and H3K36me3 in Rh30 cells; format: cell-based; conditions: 24 hr
KDM4B [5] = target: T3, KDM4B (Homo sapiens, UniProt O94953); assay: biochemical; conditions: for inhibition at 15 µM: read-out: %Inhibition of KDM4B; for %Inhibition of KDM4B: at 15 μM, screening; for KDM4B inhibitory activity (in words): Figure S2
T3 sequence (O94953 1-348): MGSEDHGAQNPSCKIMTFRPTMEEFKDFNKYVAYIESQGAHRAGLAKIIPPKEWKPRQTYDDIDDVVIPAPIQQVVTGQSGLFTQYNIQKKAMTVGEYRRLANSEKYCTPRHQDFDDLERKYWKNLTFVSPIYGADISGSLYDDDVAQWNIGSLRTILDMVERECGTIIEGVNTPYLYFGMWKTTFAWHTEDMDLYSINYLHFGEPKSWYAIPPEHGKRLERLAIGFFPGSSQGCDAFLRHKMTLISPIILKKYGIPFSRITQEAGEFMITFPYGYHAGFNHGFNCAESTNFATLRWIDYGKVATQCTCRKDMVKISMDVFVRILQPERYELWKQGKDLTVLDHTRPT

Rh30 cells = assay: Crystal violet staining proliferation assay; format: cell-based; conditions: 5 days, at the concentrations that hit the targets
aRMS xenograft = conditions: ref Kang et al., 2012; Lock et al., 2013; cited from earlier work
eRMS xenograft = conditions: ref Kang et al., 2012; Lock et al., 2013; cited from earlier work

KDM5A, sequence (P29375 whole entry): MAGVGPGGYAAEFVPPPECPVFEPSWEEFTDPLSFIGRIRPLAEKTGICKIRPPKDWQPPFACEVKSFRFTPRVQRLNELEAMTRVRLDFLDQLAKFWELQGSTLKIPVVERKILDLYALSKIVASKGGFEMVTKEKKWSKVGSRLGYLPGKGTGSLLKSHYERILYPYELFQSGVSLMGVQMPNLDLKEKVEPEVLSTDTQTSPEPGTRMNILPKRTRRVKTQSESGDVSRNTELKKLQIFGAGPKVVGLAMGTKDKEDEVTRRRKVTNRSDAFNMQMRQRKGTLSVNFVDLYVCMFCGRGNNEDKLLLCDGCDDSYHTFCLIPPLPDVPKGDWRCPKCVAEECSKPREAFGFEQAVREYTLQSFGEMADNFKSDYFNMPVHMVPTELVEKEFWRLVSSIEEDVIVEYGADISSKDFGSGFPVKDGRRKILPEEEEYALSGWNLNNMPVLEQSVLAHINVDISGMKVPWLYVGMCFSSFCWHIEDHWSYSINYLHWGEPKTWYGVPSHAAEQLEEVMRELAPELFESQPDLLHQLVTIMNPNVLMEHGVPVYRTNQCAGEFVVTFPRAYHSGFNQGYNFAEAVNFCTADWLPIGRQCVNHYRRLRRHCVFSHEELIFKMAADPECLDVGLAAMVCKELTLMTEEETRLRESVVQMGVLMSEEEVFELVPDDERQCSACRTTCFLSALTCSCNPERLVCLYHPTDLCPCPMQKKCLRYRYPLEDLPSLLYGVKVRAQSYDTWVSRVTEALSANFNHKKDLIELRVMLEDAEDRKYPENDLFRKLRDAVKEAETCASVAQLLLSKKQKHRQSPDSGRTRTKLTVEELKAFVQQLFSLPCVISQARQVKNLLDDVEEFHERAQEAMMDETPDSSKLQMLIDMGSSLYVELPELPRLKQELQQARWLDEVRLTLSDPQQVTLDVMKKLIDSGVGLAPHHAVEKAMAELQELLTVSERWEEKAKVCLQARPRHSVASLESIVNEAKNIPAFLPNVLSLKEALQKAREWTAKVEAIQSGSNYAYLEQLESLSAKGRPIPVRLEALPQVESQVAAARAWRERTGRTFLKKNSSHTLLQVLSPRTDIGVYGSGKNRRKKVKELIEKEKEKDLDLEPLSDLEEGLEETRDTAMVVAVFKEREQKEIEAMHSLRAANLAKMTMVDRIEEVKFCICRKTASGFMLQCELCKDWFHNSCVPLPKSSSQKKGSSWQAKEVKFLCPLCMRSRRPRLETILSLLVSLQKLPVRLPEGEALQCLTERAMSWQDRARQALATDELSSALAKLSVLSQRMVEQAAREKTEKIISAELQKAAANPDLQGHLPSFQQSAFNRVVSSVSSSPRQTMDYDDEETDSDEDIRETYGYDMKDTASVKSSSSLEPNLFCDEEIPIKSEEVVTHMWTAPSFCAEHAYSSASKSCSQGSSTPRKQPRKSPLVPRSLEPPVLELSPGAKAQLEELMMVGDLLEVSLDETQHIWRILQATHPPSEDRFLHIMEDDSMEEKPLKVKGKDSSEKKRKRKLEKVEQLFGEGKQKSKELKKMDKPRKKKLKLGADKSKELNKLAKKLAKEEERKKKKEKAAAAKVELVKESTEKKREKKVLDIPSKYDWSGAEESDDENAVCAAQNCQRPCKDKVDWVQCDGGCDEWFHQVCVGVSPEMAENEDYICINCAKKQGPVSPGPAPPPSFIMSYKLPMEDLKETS

KDM4B activity in demethylating H3K9me3 (KDM4B [1]): greatly inhibited KDM4B activity | IC50 (KDM4C): < 1 µM | KDM4B catalytic activity on its H3K9me3 and H3K36me3 substrates (KDM4B [2]): blocked KDM4B catalytic activity | IC50 (KDM5A): < 1 µM
Compound: COC1=C2C[C@@H](C)C[C@H](OC)[C@H](O)[C@@H](C)/C=C(\C)[C@H](OC(N)=O)[C@@H](OC)/C=C\C=C(/C)C(=O)NC(=CC1=O)C2=O [geldanamycin]
PAX3-FOXO1 expression (protein) (PAX3-FOXO1): reduced | H3K36me3 peaks decreased [3]: 213 peaks | H3K36me3 peaks increased [3]: 1430 peaks | peaks of H3K9me3 induced ([3]; p < 0.05, logFC = 0.5): Four thousand four hundred six | H3K9me3 and H3K36me3 levels [4]: induced an increase of H3K9me3 and H3K36me3

KDM4B activity in demethylating H3K9me3 (KDM4B [1]): greatly inhibited KDM4B activity
Compound: Cc1cc(C2CCCCC2)n(O)c(=O)c1 [ciclopirox]

inhibition at 15 µM (KDM4B [5]): < 15%
Compound: CC1(C)CC(=O)c2c(C(F)(F)F)nn(-c3ccc(C(N)=O)c(N[C@H]4CC[C@H](OC(=O)CN)CC4)c3)c2C1 [SNX-5422]

inhibition at 15 µM (KDM4B [5]): < 15%
Compound: CN(NC(=O)CC(=O)NN(C)C(=S)c1ccccc1)C(=S)c1ccccc1 [STA-4783]

inhibition at 15 µM (KDM4B [5]): < 15%
Compound: CCNC(=O)c1noc(-c2cc(C(C)C)c(O)cc2O)c1-c1ccc(CN2CCOCC2)cc1 [NVP-AUY922]

%Inhibition of KDM4B (KDM4B [5]): < 15%
Compound: CC[C@@H](C)Nc1cc(C(=O)N[C@H]2C[C@H]3CC[C@@H](C2)N3c2ccc(C(=O)C3CC3)cn2)c(C)cc1C(N)=O [XL888]

Compound: CCOC(=O)CCNc1cc(N2CCc3ccccc3CC2)nc(-c2ccccn2)n1 [GSK-J4]
anti-proliferative effect (Rh30 cells): no anti-proliferative effect

KDM4B inhibitory activity (in words) (KDM4B [5]): did not inhibit KDM4B activity | inhibition at 15 µM (KDM4B [5]): < 15%
Compound: CC(C)c1cc(-c2n[nH]c(=O)n2-c2ccc3c(ccn3C)c2)c(O)cc1O [Ganetespib]
aRMS xenograft growth (aRMS xenograft): no effect | eRMS xenograft growth (eRMS xenograft): no effect on either aRMS or eRMS xenograft growth

inhibition at 15 µM (KDM4B [5]): < 15%
Compound: CC(C)c1cc(C(=O)N2Cc3ccc(CN4CCN(C)CC4)cc3C2)c(O)cc1O [AT13387]
PAX3-FOXO1 expression (protein) (PAX3-FOXO1): reduced the expression of PAX3-FOXO1 | aRMS xenograft growth (aRMS xenograft): no effect | eRMS xenograft growth (eRMS xenograft): no effect on either aRMS or eRMS xenograft growth | KDM4B inhibitory activity (in words) (KDM4B [5]): minimal effect on KDM4B activity; also recorded: did not inhibit KDM4B activity

Compound: CCOC(=O)c1ccnc(CNCC(=O)N(CC)CCN(C)C)c1 [KDM5-C70]
anti-proliferative effect (Rh30 cells): no anti-proliferative effect

%Inhibition of KDM4B (KDM4B [5]): < 15%
Compound: CCc1c(O)cc(O)c(C(=O)c2ccc(OCCN3CCOCC3)c(OC)c2)c1CC(=O)N(CCOC)CCOC.Cl [KW2478]
